Eight compounds from PubChem BioAssay (NCI) can be followed below.

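Briefly, cells in 96-well plates were exposed to five compound concentrations for 48 h, and endpoints were estimated by linear interpolation. TGI: total growth inhibition.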

Among the test systems are SK-MEL-5 melanoma; NCI-H23 lung; OVCAR-8 ovarian; ACHN renal; NCI/ADR-RES ovarian; NCI-H460 lung; U251 CNS; MDA-N; SK-OV-3 ovarian; OVCAR-4 ovarian; DU-145 prostate; IGROV1 ovarian; COLO 205 colon.
Assay in all cases: NCI-60 cell line screen, 48 h

As for `O=c1[nH]c2c(C(F)(F)F)c(Cl)c(-c3ccccc3)nc2o1`, the TGI in the test with SK-MEL-5 melanoma was above 100 µM; in the test with NCI-H23 lung, 52.1 µM; with OVCAR-8 ovarian, above 100 µM; with ACHN renal it was above 100 µM; in the test on NCI/ADR-RES ovarian it was 67.2 µM; in the test with NCI-H460 lung, 69.8 µM. Also, the TGI in the test on U251 CNS is 85.6 µM; in the test on MDA-N, 44.8 µM; in the test on SK-OV-3 ovarian, 64.7 µM; in the test with OVCAR-4 ovarian, 69.5 µM; in the test on DU-145 prostate, above 100 µM; in the test with IGROV1 ovarian it was above 100 µM. In the test with COLO 205 colon, the TGI worked out at 28.1 µM.

Regarding `COc1ccc(Nc2nc3ccccc3nc2-c2cccs2)cc1OC`, the TGI in the test on SK-MEL-5 melanoma, in the test with NCI-H23 lung, in the test on OVCAR-8 ovarian, in the test on ACHN renal, with NCI/ADR-RES ovarian and in the test on NCI-H460 lung was above 10 µM each time. Moreover, the TGI in the test with U251 CNS, in the test with MDA-N, in the test with SK-OV-3 ovarian, in the test on OVCAR-4 ovarian, in the test on DU-145 prostate and with IGROV1 ovarian was above 10 µM each time. This compound displayed a TGI with COLO 205 colon above 10 µM.

In the case of `COc1cc(O)c2c(=O)c3cccc(C)c3[nH]c2c1`, the TGI with SK-MEL-5 melanoma, in the test on NCI-H23 lung, with OVCAR-8 ovarian, in the test with ACHN renal, with NCI/ADR-RES ovarian and in the test with NCI-H460 lung was above 10 µM in each case. Also, the TGI with U251 CNS, in the test on MDA-N, in the test with SK-OV-3 ovarian, in the test on OVCAR-4 ovarian, in the test on DU-145 prostate and in the test with IGROV1 ovarian was above 10 µM each time. In the test on COLO 205 colon, this compound gave a TGI above 10 µM.

For `Cc1ccc(N=NC(=Nc2ccc(F)cc2)c2ccc(N(CCC#N)CCC#N)cc2)cc1`, the TGI with SK-MEL-5 melanoma, in the test with NCI-H23 lung, in the test with OVCAR-8 ovarian, in the test on ACHN renal, in the test on NCI/ADR-RES ovarian and in the test on NCI-H460 lung was above 100 µM in each case. For the same compound, the TGI in the test with U251 CNS, in the test on MDA-N, with SK-OV-3 ovarian, in the test on OVCAR-4 ovarian, in the test on DU-145 prostate and in the test on IGROV1 ovarian was above 100 µM in each case. In the test on COLO 205 colon, this compound came in with a TGI above 100 µM.

On to `CCN(CC)c1c(-c2c(OC(C)C)c(=O)c2=O)c(=O)n2ccsc2c1OC(C)=O`, for which the TGI with SK-MEL-5 melanoma, in the test with NCI-H23 lung, in the test with OVCAR-8 ovarian, in the test on ACHN renal, with NCI/ADR-RES ovarian and in the test with NCI-H460 lung was above 100 µM throughout. Further, the TGI with U251 CNS, in the test with MDA-N, with SK-OV-3 ovarian, with OVCAR-4 ovarian, with DU-145 prostate and in the test on IGROV1 ovarian was above 100 µM in each case. Further, the TGI in the test on COLO 205 colon was above 100 µM.

Regarding `CC(Nc1cccc(Cl)c1)c1ccncc1` (centres undefined), the TGI with SK-MEL-5 melanoma, in the test on NCI-H23 lung, with OVCAR-8 ovarian, in the test with ACHN renal, in the test with NCI/ADR-RES ovarian and in the test on NCI-H460 lung was above 100 µM in each case. Also, the TGI in the test with U251 CNS, in the test with MDA-N, in the test on SK-OV-3 ovarian, in the test with OVCAR-4 ovarian, in the test on DU-145 prostate and in the test on IGROV1 ovarian was above 100 µM each time. In the test on COLO 205 colon, the TGI was above 100 µM.

In the case of `Cc1cc(C)c2c(-c3ccccc3)cc(=O)[nH]c2c1`, the TGI with SK-MEL-5 melanoma, with NCI-H23 lung, in the test with OVCAR-8 ovarian, with ACHN renal, in the test with NCI/ADR-RES ovarian and in the test on NCI-H460 lung was above 100 µM throughout. In addition, the TGI with U251 CNS, with MDA-N, in the test with SK-OV-3 ovarian, with OVCAR-4 ovarian, in the test with DU-145 prostate and in the test with IGROV1 ovarian was above 100 µM throughout. Besides, in the test with COLO 205 colon, the TGI is above 100 µM.

For the compound `CN(C)CC1CCC/C(=C\c2ccc(Cl)c(Cl)c2)C1=O` (centres undefined), the TGI in the test with SK-MEL-5 melanoma is 22.7 µM; with NCI-H23 lung, 23.8 µM; with OVCAR-8 ovarian, 9.89 µM; in the test with ACHN renal it was 15.1 µM; in the test on NCI/ADR-RES ovarian it was 22.8 µM; in the test with NCI-H460 lung it was 28 µM. Besides, the TGI came to 6.52 µM in the test with U251 CNS; 12.7 µM in the test on MDA-N; 20.3 µM in the test on SK-OV-3 ovarian; 14.3 µM in the test on OVCAR-4 ovarian; 23 µM with DU-145 prostate; 12.1 µM in the test on IGROV1 ovarian. This compound also returned a TGI with COLO 205 colon of 7.27 µM.
